Laboratory results as given in patent US20250270159A1, “1-(CYCLOBUTANEMETHYLIDENE)-2, 4, 5-TRIMETHOXYBENZENE COMPOUND AND PREPARATION METHOD AND USE THEREOF” (CHENGDU XINRUI TAIKANG TECHNOLOGY CO., LTD., priority 2023, published 2025).

Tests used:
[1] = tested on: neurons of substantia nigra region and striatum of PD mice; assay: HE staining of substantia nigra and striatum of PD mice; format: in vivo, C57 mice; details: Group D, CTMB 20 mg/kg ip, 4 weeks; compared with model group; FIG. 5-7
Experimental: (§1) The mice were randomly divided into a sham operation group (group S, given a blank emulsion with a volume equal to that of the administered group), a model group (group M, given a blank emulsion with a volume equal to that of the administered group), a CTMB group (20 mg/kg, group D), and a levodopa group (levodopa: benserazide hydrochloride=4:1, 12 mg/kg, group L), each group included 10-12 mice, and all of them were administered intraperitoneally.
After completing the evaluation of motor function after 4 weeks of drug administration, the mice were deeply anesthetized, perfused with 20 mL of saline and 20 mL of 4% paraformaldehyde via the heart, and the brains were rapidly severed and extracted from the head, which were then preserved and fixed in 4% paraformaldehyde for 72 h after removal, and then embedded with paraffin to prepare the slices with a thickness of 4 μm for subsequent pathological and histological studies.
Hematoxylin-eosin (HE) staining may be used to observe changes in the pathological condition of brain tissue. […]

[2] = tested on: blood-brain barrier permeability, traumatic brain injury (TBI) rats; assay: Blood-brain barrier permeability test (Evans blue) in TBI rats; format: in vivo, SD rats; details: 30 mg/kg ip 2 h after TBI; 24 h after administration; FIG. 2
Experimental: (§2) The experimental grouping and drug administration plan were as follows. • Sham operation group (Group P): saline was given with the same volume as in the CTMB group; • Model group (T group): a blank emulsion was given with the same volume as in the CTMB group; • Medium dose group (Group M): a dose of 30 mg/kg of CTMB emulsion injection was given.
After 2 h of traumatic brain injury (TBI) modeling, the rats in each group were administered with intraperitoneal injection. After 24 h of the administration, 4% Evans blue solution (2.5 mL/kg) was injected into the right tail vein of the rats, and after 1 h, the rats were deeply anesthetized. The rats were perfused with 100 mL of saline through the heart, the brains were rapidly severed and removed and were immediately divided into the left hemisphere, the right hemisphere, the cerebellum, and the brain stem. The brain tissues were weighed to wet weight, soaked in 10 times volume of pure formamide, incubated at 60° C. for 48 h, and centrifuged at 25° C. and 10000 rpm/min for 30 min. The supernatant was aspirated to detect the Evans blue dye by UV spectrophotometry at 622 nm and a standard curve was plotted for quantification, and the final results were shown as Evans blue content per gram of brain tissue (μg/g).

GLT-1 = GLT-1 content in brain of TBI rats; format: in vivo, SD rats; details: 30 mg/kg ip, 7 d continuous administration, FIG. 4
Experimental: as §2
The experimental grouping and drug administration plan were the same as the test 3. After 7 d of continuous administration to each group, the rats were deeply anesthetized, the heads were severed and the brains were removed, about 60-120 mg of hemispheric cortex on the blood side was taken out, 10 times volume of ice-cold centrifugation buffer used for biochemical assay was added, homogenized for 10 min under an ice bath, and then centrifuged for 30 min at 4° C. and 14000 rpm/min. The supernatants were taken to test the GLT-1 and GABA content according to the instructions of GLT-1 and GABA content assay kit, respectively. Glutamate transporter 1 (GLT-1) is an important glutamate transporter in the brain that transports extracellular glutamate to the intracellular compartment. γ-aminobutyric acid (GABA) is an important inhibitory neurotransmitter, and a dramatic increase in the concentration of extracellular glutamate in pathological conditions leads to neuronal hyperexcitability toxicity.

[3] = tested on: superoxide dismutase (SOD); assay: SOD activity in striatum of PD mice; format: in vivo, C57 mice; details: Group D, CTMB 20 mg/kg ip, after 4 weeks, injured side
Experimental: as §1
Malondialdehyde (MDA) is a commonly used indicator of membrane lipid peroxidation, reduced glutathione (GSH) is one of the most commonly used non-enzymatic indicators of antioxidant substances, and superoxide dismutase (SOD) is a common indicator of antioxidant enzymes. After completing the evaluation of motor function after 4 weeks of drug administration, the mice were deeply anesthetized and perfused with 20 mL of saline via the heart. The brain was rapidly severed to isolate the striatal region on the injured side (right side), weighed, and placed into a 1.5 mL EP tube, and homogenized at low temperature by adding phosphate-buffered saline (PBS) at the ratio of a weight of animal tissues (g) to a volume of homogenization medium (mL) of 1:9. […]

TNF-α = TNF-α in cerebral cortex of TBI rats; format: in vivo, SD rats; details: 30 mg/kg ip 2 h after TBI; 24 h after administration; FIG. 3
Experimental: as §2
The experimental grouping and drug administration plan were the same as the test 3. After 2 h of the TBI modeling, different groups of rats were administered intraperitoneally. After 24 h of the administration, the rats were deeply anesthetized, the head was severed and the brain was removed, about 60-120 mg of hemisphere cortex was taken out from the hemisphere on the blood side, 10 times the volume of ice-cold centrifugal buffer used for biochemical assays was added, homogenization was carried out in an ice bath for 10 min, and centrifugation was carried out at 4° C. and 14000 rpm/min for 30 min. The supernatant was extracted, and inflammatory factors IL-1, IL-6, and TNF-α were tested according to the instructions of IL-1, IL-6, and TNF-α assay kits, respectively.

## COc1cc(OC)c(OC)cc1C=C1CCC1 [CTMB, 1-(cyclobutylidenemethyl)-2,4,5-trimethoxybenzene]
[1]
  degree of pathological damage to the substantia nigra region and striatum: reduced
[2]
  Evans blue exudation (content per gram of brain tissue): significantly reduces Evans blue exudation
GLT-1
  GLT-1 content in brain: reduces the GLT-1 content
  ratio of GLT-1 and GABA: significantly reduces the ratio of GLT-1 and GABA
[3]
  SOD: 80.24 ± 10.46 U/mg protein
TNF-α
  content of TNF-α in cerebral cortex tissue: significantly reduced
